The values below are quoted from earlier work in publication PMC4875922 (Drugs in R&D, 2016).

Assay in data set [1]: not given
The source holds these as a separate data set.

In the case of `O=C(Nc1cccnn1)N1CCC(=Cc2cccc(Oc3ccc(C(F)(F)F)cn3)c2)CC1` [PF-04457845], the linearity of pharmacokinetics result was “non-linear pharmacokinetics”. The tolerability result (at doses that cause maximal inhibition of FAAH and elevation of plasma endocannabinoids) was “well tolerated”. The “effect in phase II study in osteoarthritic pain” value in data set [1] is “without effect”.
